Holding throughout (format): functional
The test system of assay [1] is Digitaria sanguinalis. In words: Herbicide activity against Digitaria sanguinalis assessed as weed control at 31.25 g/ha.
The subject of assay [2] is Amaranthus retroflexus. As to the kind of experiment: Herbicide activity against Amaranthus retroflexus assessed as weed control measured after pre-emergence treatment in southwestern ontario.
Assay [3] relates to Echinochloa crus-galli. In words: Herbicide activity against Echinochloa crus-galli (barnyard grass) assessed as weed control at 31.25 g/ha.
Assay [4] concerns Abutilon theophrasti. As to the kind of experiment: Herbicide activity against Abutilon theophrasti (velvetleaf) assessed as weed control at 31.25 g/ha.
Assay [5] concerns Amaranthus palmeri. As to the kind of experiment: Herbicide activity against Amaranthus palmeri S.Watson assessed as weed control at 125 g/ha.
Assay [6] relates to Chenopodium album. In words: Herbicide activity against Chenopodium album assessed as weed control measured after pre-emergence treatment in southwestern ontario.
Assay [7] deals with Digitaria. As to the kind of experiment: Herbicide activity against Digitaria assessed as weed control at 274 g/ha in presence of 2% organic matter on soil.
In assay [8] the test system is Amaranthus palmeri. In words: Herbicide activity against Amaranthus […] (Moq.) Sauer. assessed as weed control at 152 g/ha.
The subject of assay [9] is Setaria viridis. As to the kind of experiment: Herbicide activity against Setaria viridis (green foxtail) assessed as weed control measured after pre-emergence treatment in southwestern ontario.
The subject of assay [10] is Amaranthus. In words: Herbicide activity against Amaranthus sp. assessed as weed control at 1000 g/ha.

On to `Cn1nc(C(F)(F)F)c(CS(=O)(=O)C2=NOC(C)(C)C2)c1OC(F)F` [PYROXASULFONE], for which the Activity in assay [1] amounted to 90%; in assay [3] it was 90%; in assay [4], 90%; in assay [5], 95%; in assay [7], 90%; in assay [8] it was 90%. In assay [10], the Activity is recorded as 90%. Further, the results for the I90 in assay [2], in assay [6] and in assay [9] were 93 g/ha, 499 g/ha and 111 g/ha, respectively.

For the origin of these results see ChEMBL document CHEMBL3044777, “Weed control and sweet maize (Zea mays L.) yield as affected by pyroxasulfone dose” (2011).
